# According to article PMC12136037, “Type II kinase inhibitors that target Parkinson’s disease–associated LRRK2” (Science Advances, 2025):
# Values joined by “and” are separate entries in the source; they are usually repeats but may differ in a detail not shown here. Equal entries are not always repeated. Where two headings read alike, the source gives them in different places.
# Key:
# MAPK14 = molecular target: T1, MAPK14 (Homo sapiens, UniProt Q16539); assay: nanoBRET off-target validation; assay type: cell-based
# T1 construct: host or cells: HEK293T (ATCC CRL-3216)
# Protocol: (§1) The assay was performed as described previously ([61]). In brief, full-length kinases as listed in table S6 were obtained as plasmids cloned in frame with terminal NanoLuc-fusion (gift from Promega; table S6). […] Serially diluted inhibitor and corresponding tracer as listed in table S6 at the Tracer KD concentration taken from TracerDB (tracerdb.org) ([62]) were pipetted into white 384-well plates (Greiner, 781207) using an ECHO acoustic dispenser (Labcyte). The corresponding protein-transfected cells were added and reseeded at a density of 2 × 10^5 cells/ml after trypsinization and resuspending in Opti-MEM without phenol red (Life Technologies). The system was allowed to equilibrate for 3 hours at 37°C/5% CO2 before bioluminescence resonance energy transfer (BRET) measurements. To measure BRET, NanoBRET NanoGlo Substrate + extracellular NanoLuc Inhibitor (Promega, N2540) was added as per the manufacturer’s protocol, and filtered luminescence was measured on a PHERAstar plate reader (BMG Labtech) equipped with a luminescence filter pair [450-nm BP filter (donor) and 610-nm LP filter (acceptor)]. […] (For step-by-step protocol, see www.eubopen.org/sites/www.eubopen.org/files/attachments/2021/NanoBRET-IC50_v1_0.pdf.)
# SLK = molecular target: T2, SLK (Homo sapiens, UniProt Q9H2G2); assay: nanoBRET off-target validation; assay type: cell-based
# T2 construct: host or cells: HEK293T (ATCC CRL-3216)
# Protocol: as §1
# T2 sequence (Q9H2G2 whole entry): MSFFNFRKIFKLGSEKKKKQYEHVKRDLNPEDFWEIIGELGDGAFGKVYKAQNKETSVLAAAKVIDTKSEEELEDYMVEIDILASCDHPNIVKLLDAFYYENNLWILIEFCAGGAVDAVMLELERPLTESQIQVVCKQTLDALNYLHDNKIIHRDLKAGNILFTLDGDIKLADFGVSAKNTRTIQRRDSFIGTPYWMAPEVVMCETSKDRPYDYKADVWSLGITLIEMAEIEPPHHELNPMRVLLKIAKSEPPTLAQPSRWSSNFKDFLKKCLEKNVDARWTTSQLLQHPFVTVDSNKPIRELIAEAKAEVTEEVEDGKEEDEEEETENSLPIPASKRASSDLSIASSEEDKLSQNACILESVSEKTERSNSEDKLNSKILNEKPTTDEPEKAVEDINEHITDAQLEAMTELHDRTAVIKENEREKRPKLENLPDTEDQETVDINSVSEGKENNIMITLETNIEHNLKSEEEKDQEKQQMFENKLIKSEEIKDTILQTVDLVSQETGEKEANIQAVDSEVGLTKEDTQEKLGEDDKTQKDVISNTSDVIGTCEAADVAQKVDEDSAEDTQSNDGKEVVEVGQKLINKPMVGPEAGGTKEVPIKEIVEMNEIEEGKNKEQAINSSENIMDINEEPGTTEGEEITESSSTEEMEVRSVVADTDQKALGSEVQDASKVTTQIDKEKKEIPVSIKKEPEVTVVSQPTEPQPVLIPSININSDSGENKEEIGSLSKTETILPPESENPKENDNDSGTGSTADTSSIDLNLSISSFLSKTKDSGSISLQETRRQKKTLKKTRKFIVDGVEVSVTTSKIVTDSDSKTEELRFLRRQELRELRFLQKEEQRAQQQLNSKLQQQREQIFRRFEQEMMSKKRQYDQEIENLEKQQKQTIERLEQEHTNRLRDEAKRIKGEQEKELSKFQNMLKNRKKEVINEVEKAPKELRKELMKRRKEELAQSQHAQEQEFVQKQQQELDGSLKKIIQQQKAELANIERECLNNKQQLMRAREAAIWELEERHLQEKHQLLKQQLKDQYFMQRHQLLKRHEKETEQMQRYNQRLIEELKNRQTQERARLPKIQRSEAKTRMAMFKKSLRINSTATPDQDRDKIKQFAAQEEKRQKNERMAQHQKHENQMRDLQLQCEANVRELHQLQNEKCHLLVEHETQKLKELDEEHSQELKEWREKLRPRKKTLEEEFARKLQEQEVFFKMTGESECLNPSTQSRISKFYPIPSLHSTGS
# T1 sequence (Q16539 whole entry): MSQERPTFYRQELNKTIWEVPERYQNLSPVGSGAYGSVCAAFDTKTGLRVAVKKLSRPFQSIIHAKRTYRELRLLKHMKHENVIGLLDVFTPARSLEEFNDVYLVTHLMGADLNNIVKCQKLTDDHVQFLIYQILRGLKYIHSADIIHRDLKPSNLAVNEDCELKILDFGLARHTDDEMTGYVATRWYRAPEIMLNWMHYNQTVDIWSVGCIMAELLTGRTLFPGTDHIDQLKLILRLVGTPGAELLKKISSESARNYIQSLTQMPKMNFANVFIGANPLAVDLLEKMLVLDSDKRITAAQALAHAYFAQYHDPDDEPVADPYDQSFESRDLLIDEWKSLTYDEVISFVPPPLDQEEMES
smiles,measurement,setting,value
CCSc1nc(NC)c2c(-c3cccc(NC(=O)Nc4cc(C(C)(C)C)nn4-c4ccc(C)cc4)c3)c[nH]c2n1 [Compound 32],remaining activity at 0.008 µM,"MAPK14; MAPK14, inhibitor 8 nM, two replicates, read-out: nanoBRET response normalized to 0% (no tracer) and 100% (no inhibitor) control",100%
same,nanoBRET response normalized to 0% (no tracer) and 100% (no inhibitor) control,"MAPK14; MAPK14, inhibitor 16 nM, two replicates, listed as RN341, 0.016 µM",103.532%
same,remaining activity at 0.016 µM,"MAPK14; MAPK14, inhibitor 16 nM, two replicates, read-out: nanoBRET response normalized to 0% (no tracer) and 100% (no inhibitor) control",96.2%
same,nanoBRET response normalized to 0% (no tracer) and 100% (no inhibitor) control,"MAPK14; MAPK14, inhibitor 50 nM, two replicates, listed as RN341, 0.05 µM",95.4254%
same,remaining activity at 0.05 µM,"MAPK14; MAPK14, inhibitor 50 nM, two replicates, read-out: nanoBRET response normalized to 0% (no tracer) and 100% (no inhibitor) control",90.1%
same,nanoBRET response normalized to 0% (no tracer) and 100% (no inhibitor) control,"MAPK14; MAPK14, inhibitor 250 nM, two replicates, listed as RN341, […]",83.4876%
same,remaining activity at […],"MAPK14; MAPK14, inhibitor 250 nM, two replicates, read-out: nanoBRET response normalized to 0% (no tracer) and 100% (no inhibitor) control",73.2%
same,nanoBRET response normalized to 0% (no tracer) and 100% (no inhibitor) control,"MAPK14; MAPK14, inhibitor 500 nM, two replicates, listed as RN341, 0.5 µM",52.7705%
same,remaining activity at 0.5 µM,"MAPK14; MAPK14, inhibitor 500 nM, two replicates, read-out: nanoBRET response normalized to 0% (no tracer) and 100% (no inhibitor) control",57.4%
same,nanoBRET response normalized to 0% (no tracer) and 100% (no inhibitor) control,"MAPK14; MAPK14, inhibitor 2500 nM, two replicates, listed as RN341, […]",49.0355%
same,remaining activity at […],"MAPK14; MAPK14, inhibitor 2500 nM, two replicates, read-out: nanoBRET response normalized to 0% (no tracer) and 100% (no inhibitor) control",48.5%
same,nanoBRET response normalized to 0% (no tracer) and 100% (no inhibitor) control,"MAPK14; MAPK14, inhibitor 5000 nM, two replicates, listed as RN341, 5 µM",40.5445%
same,remaining activity at 5 µM,"MAPK14; MAPK14, inhibitor 5000 nM, two replicates, read-out: nanoBRET response normalized to 0% (no tracer) and 100% (no inhibitor) control",48.2%
same,nanoBRET response normalized to 0% (no tracer) and 100% (no inhibitor) control,"MAPK14; MAPK14, inhibitor 25000 nM, two replicates, listed as RN341, 25 µM",17.1717%
same,remaining activity at 25 µM,"MAPK14; MAPK14, inhibitor 25000 nM, two replicates, read-out: nanoBRET response normalized to 0% (no tracer) and 100% (no inhibitor) control",25.4%
same,EC50,"MAPK14; in cellulo nanoBRET, 293T cells",< 5 µM and 1.7 µM
same,EC50,SLK,> 20 µM
same,nanoBRET response normalized to 0% (no tracer) and 100% (no inhibitor) control,"SLK; SLK, inhibitor 8 nM, two replicates, listed as RN341, 0.008 µM",107.417%
same,NanoBRET tracer signal (% of no-inhibitor control) at 0.008 µM,"SLK; SLK, inhibitor 8 nM, two replicates, read-out: nanoBRET response normalized to 0% (no tracer) and 100% (no inhibitor) control",106%
same,nanoBRET response normalized to 0% (no tracer) and 100% (no inhibitor) control,"SLK; SLK, inhibitor 16 nM, two replicates, listed as RN341, 0.016 µM",115.381%
same,NanoBRET tracer signal (% of no-inhibitor control) at 0.016 µM,"SLK; SLK, inhibitor 16 nM, two replicates, read-out: nanoBRET response normalized to 0% (no tracer) and 100% (no inhibitor) control",113%
same,NanoBRET tracer signal (% of no-inhibitor control) at 0.05 µM,"SLK; SLK, inhibitor 50 nM, two replicates, read-out: nanoBRET response normalized to 0% (no tracer) and 100% (no inhibitor) control",102% and 106%
same,nanoBRET response normalized to 0% (no tracer) and 100% (no inhibitor) control,"SLK; SLK, inhibitor 250 nM, two replicates, listed as RN341, […]",119.576%
same,NanoBRET tracer signal (% of no-inhibitor control) at […],"SLK; SLK, inhibitor 250 nM, two replicates, read-out: nanoBRET response normalized to 0% (no tracer) and 100% (no inhibitor) control",107%
same,nanoBRET response normalized to 0% (no tracer) and 100% (no inhibitor) control,"SLK; SLK, inhibitor 500 nM, two replicates, listed as RN341, 0.5 µM",122.526%
same,NanoBRET tracer signal (% of no-inhibitor control) at 0.5 µM,"SLK; SLK, inhibitor 500 nM, two replicates, read-out: nanoBRET response normalized to 0% (no tracer) and 100% (no inhibitor) control",118%
same,nanoBRET response normalized to 0% (no tracer) and 100% (no inhibitor) control,"SLK; SLK, inhibitor 2500 nM, two replicates, listed as RN341, […]",114.832%
same,NanoBRET tracer signal (% of no-inhibitor control) at […],"SLK; SLK, inhibitor 2500 nM, two replicates, read-out: nanoBRET response normalized to 0% (no tracer) and 100% (no inhibitor) control",117%
same,nanoBRET response normalized to 0% (no tracer) and 100% (no inhibitor) control,"SLK; SLK, inhibitor 5000 nM, two replicates, listed as RN341, 5 µM",116.499%
same,NanoBRET tracer signal (% of no-inhibitor control) at 5 µM,"SLK; SLK, inhibitor 5000 nM, two replicates, read-out: nanoBRET response normalized to 0% (no tracer) and 100% (no inhibitor) control",105%
same,nanoBRET response normalized to 0% (no tracer) and 100% (no inhibitor) control,"SLK; SLK, inhibitor 25000 nM, two replicates, listed as RN341, 25 µM",86.6362%
same,NanoBRET tracer signal (% of no-inhibitor control) at 25 µM,"SLK; SLK, inhibitor 25000 nM, two replicates, read-out: nanoBRET response normalized to 0% (no tracer) and 100% (no inhibitor) control",83.9%
